Patent publication US8507214B2, “Elisa kit for detecting lincomycin” (Beijing Kwinbon Biotechnology Co., Ltd., priority 2008, dated 2013)

Key:
[1] = tested on: lincomycin monoclonal antibody prepared from hapten LIN-S1; assay: Cross reaction (specificity) of the monoclonal antibody prepared from hapten LIN-S1; assay type: binding, mouse; details: antibody from hapten scheme LIN-S1; lincomycin = 100%
Procedure: (§1) When the mouse serum titer is determined as high, the spleen cells are collected and fused with SP2/0 myeloma cells at an amount ratio of 7:1. The cell supernatant is detected by indirect competitive ELISA for screening the positive wells. The cells in the positive wells are cloned via limiting dilution method until a hybridoma cell secreting monoclonal antibody is obtained. The 50% inhibitory concentration and specificity of the monoclonal antibodies prepared from the two hapten schemes above are detected.

[2] = tested on: monoclonal antibody prepared from hapten LIN-S2; assay: Cross reaction (specificity) of the monoclonal antibody prepared from hapten LIN-S2; assay type: binding, mouse; details: antibody from hapten scheme LIN-S2; lincomycin = 100%
Procedure: as §1

Row | SMILES | Cross reaction [1] | Cross reaction [2]
1 | CC[C@H]1OC(=O)[C@H](C)[C@@H](O[C@H]2C[C@@](C)(OC)[C@@H](O)[C@H](C)O2)[C@H](C)[C@@H](O[C@@H]2O[C@H](C)C[C@H](N(C)C)[C@H]2O)[C@](C)(O)C[C@@H](C)C(=O)[C@H](C)[C@@H](O)[C@]1(C)O [Erythromycin] | <1% | <1%
2 | CCC[C@@H]1C[C@@H](C(=O)N[C@@H]([C@H]2O[C@H](SC)[C@H](O)[C@@H](O)[C@H]2O)[C@@H](C)O)N(C)C1 [Lincomycin] | 100% | 100%
3 | [H]/N=C(/N)N[C@H]1[C@H](O)[C@@H](O)[C@H](O[C@@H]2O[C@@H](C)[C@](O)(C=O)[C@H]2O[C@@H]2O[C@@H](CO)[C@H](O)[C@@H](O)[C@@H]2NC)[C@@H](N/C(N)=N\[H])[C@@H]1O [Streptomycin] | <1% | 9.2%
4 | CC[C@H]1OC(=O)C[C@@H](O)[C@H](C)[C@@H](O[C@@H]2O[C@H](C)[C@@H](O[C@H]3C[C@@](C)(O)[C@@H](O)[C@H](C)O3)[C@H](N(C)C)[C@H]2O)[C@@H](CC=O)C[C@@H](C)C(=O)/C=C/C(C)=C/[C@@H]1CO[C@@H]1O[C@H](C)[C@@H](O)[C@@H](OC)[C@H]1OC [Tylosin] | <1% | <1%
